# Test results taken from patent publication US7652047B2, “Phenylamino isothiazole carboxamidines as MEK inhibitors” (Ardea Biosciences, Inc., priority 2005, dated 2010).
# pIC50: −log10 of the molar value.
# Target: T1, MEK1^CA (human GST-MEK1, constitutively active, Ser218Asp and Ser222Asp) (Homo sapiens, UniProt Q02750, S218D/S222D)
# T1 construct: GST; made in house; host or cells: Escherichia coli
# Experiment: MEK1 enzymatic activity assay (MEK1^CA / ERK2 / MBP, [γ-33P]ATP incorporation)
# Type: biochemical
# Details: Table 1, compounds of formula I; read-out: Avg IC50
# Text: Materials and preparation of reagents: Human GST-MEK1 and the constitutively active allele GST-MEK1^CA (harboring the mutations Ser218Asp and Ser222Asp) were subcloned into the […] expression vector pGEM4Z (Promega, Madison, Wis.) from the wild type human MEK1 cDNA. GST-MEK1^CA was expressed in Escherichia coli and partially purified using Glutathione Sepharose 4B affinity resin (Amersham Pharmacia Biotech, Piscataway, N.J.). The ERK2 allele was subcloned from MAPK2/Erk2 cDNA (wild type) in pUSEamp (Upstate Biotechnology, Inc., Waltham, Mass.) into the vector pET21a (Novagen, Madison, Wis.) resulting in an N-terminal histidine-tagged mouse ERK2 allele. […] Myelin basic protein (MBP) was purchased from Gibco BRL (Rockville, Md.). EasyTides adenosine 5′-triphosphate (ATP) ([γ-^33P]) (NEN Perkin Elmer, Wellesley, Mass.) was the source of radiolabel for all kinase reactions. Activated Raf-1 (truncated) and activated MAPKinase 2/ERK2 were purchased from Upstate, Inc. (Lake Placid, N.Y.). 4-20% Criterion Precast gels were purchased from Bio-Rad (Hercules, Calif.).
# A typical 25-microliter assay contained 0.002 nanomoles MEK1^CA, 0.02 nanomoles ERK2, 0.25 nanomoles MBP, 0.25 nanomoles unlabeled ATP, and 0.1 μCi [γ^33P] ATP. The screening assay essentially comprised four additions. Five μl of diluted compound were dispensed to 96-well assay plates. Ten μl of 2.5× enzyme cocktail (MEK1^CA and ERK2 only) were then added to each well followed by a pre-incubation for 30 minutes at ambient temperature. […] Finally, 100 μl of 10% trichloroacetic acid (TCA) were added and incubated for 30 minutes at room temperature to halt the reaction and precipitate radiolabeled protein products. Reaction products were harvested on glass fiber 96 well filter plates prewetted with water and 1% pyrophosphate. The filter plate was then washed 5 times with water. Water was displaced by absolute ethanol and the plate was allowed to air dry for 30 minutes at room temperature. A back seal was applied manually and 40 μl of scintillation cocktail were dispensed to each well. A top seal was applied and the plate was counted in the TopCount for two seconds per well.
# T1 sequence (Q02750 whole entry S218D/S222D): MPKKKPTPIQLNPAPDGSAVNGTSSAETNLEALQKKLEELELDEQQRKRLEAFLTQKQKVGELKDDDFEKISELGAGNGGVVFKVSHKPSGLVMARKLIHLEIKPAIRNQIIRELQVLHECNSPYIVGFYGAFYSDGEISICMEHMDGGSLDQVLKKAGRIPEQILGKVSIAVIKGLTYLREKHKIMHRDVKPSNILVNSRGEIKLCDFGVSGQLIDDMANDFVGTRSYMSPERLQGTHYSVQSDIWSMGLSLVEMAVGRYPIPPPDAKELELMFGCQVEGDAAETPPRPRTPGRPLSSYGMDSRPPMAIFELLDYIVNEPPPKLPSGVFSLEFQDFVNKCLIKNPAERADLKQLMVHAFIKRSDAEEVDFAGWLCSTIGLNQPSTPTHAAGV
row,pIC50,SMILES
1,6.30 to 7.00,CNC(=N)c1c(O)nsc1Nc1ccc(C)cc1 [Cpd 1]
2,6.30 to 7.00,Cc1ccc(Nc2snc(O)c2C(=N)NC2CCCC2)cc1 [Cpd 2]
3,< 6.30,Cc1ccc(Nc2snc(O)c2/C(N)=N/O)cc1 [Cpd 3]
4,6.30 to 7.00,Cc1ccc(Nc2snc(O)c2C(=N)NCCN2CCOCC2)cc1 [Cpd 4]
5,6.30 to 7.00,Cc1ccc(Nc2snc(O)c2C(=N)NN2CCOCC2)cc1 [Cpd 5]
6,7.00 to 9.00,N=C(NN1CCOCC1)c1c(O)nsc1Nc1ccc(Oc2ccccc2)cc1 [Cpd 6]
7,6.30 to 7.00,Cc1ccc(Nc2snc(O)c2C(=N)NN2CCCCC2)cc1 [Cpd 7]
8,< 6.30,Cc1ccc(Nc2snc(O)c2C(=N)N2CCc3ccccc3C2)cc1 [Cpd 8]
9,7.00 to 9.00,N=C(NCCCCO)c1c(O)nsc1Nc1ccc(Oc2ccccc2)cc1 [Cpd 9]
10,7.00 to 9.00,CCCCCCCNC(=N)c1c(O)nsc1Nc1ccc(Oc2ccccc2)cc1 [Cpd 10]
11,7.00 to 9.00,N=C(NC1CCCCC1)c1c(O)nsc1Nc1ccc(Oc2ccccc2)cc1 [Cpd 11]
12,7.00 to 9.00,N=C(NC1CCCC1)c1c(O)nsc1Nc1ccc(Oc2ccccc2)cc1 [Cpd 12]
13,7.00 to 9.00,N=C(NCCC1=CCCCC1)c1c(O)nsc1Nc1ccc(Oc2ccccc2)cc1 [Cpd 13]
14,6.30 to 7.00,N=C(NCCc1ccccc1)c1c(O)nsc1Nc1ccc(Oc2ccccc2)cc1 [Cpd 14]
15,7.00 to 9.00,CC(CNC(=N)c1c(O)nsc1Nc1ccc(Oc2ccccc2)cc1)c1ccccc1 (stereo not shown) [Cpd 15]
16,7.00 to 9.00,N=C(NC1CCC1)c1c(O)nsc1Nc1ccc(Oc2ccccc2)cc1 [Cpd 16]
17,6.30 to 7.00,N=C(NCCc1cccc(F)c1)c1c(O)nsc1Nc1ccc(Oc2ccccc2)cc1 [Cpd 17]
18,6.30 to 7.00,N=C(NCCc1cccs1)c1c(O)nsc1Nc1ccc(Oc2ccccc2)cc1 [Cpd 18]
19,7.00 to 9.00,N=C(NCC1CC1)c1c(O)nsc1Nc1ccc(Oc2ccccc2)cc1 [Cpd 19]

row,pIC50,SMILES
1,6.30 to 7.00,N=C(NCc1ccccc1)c1c(O)nsc1Nc1ccc(Oc2ccccc2)cc1 [Cpd 20]
2,7.00 to 9.00,N=C(NCc1ccc(C(F)(F)F)cc1)c1c(O)nsc1Nc1ccc(Oc2ccccc2)cc1 [Cpd 21]
3,7.00 to 9.00,N=C(N[C@@H]1CC2CCC1C2)c1c(O)nsc1Nc1ccc(Oc2ccccc2)cc1 (stereo partly shown) [Cpd 22]
4,7.00 to 9.00,N=C(NC1CCCCCC1)c1c(O)nsc1Nc1ccc(Oc2ccccc2)cc1 [Cpd 23]
5,< 6.30,Cn1sc(Nc2ccc(Oc3ccccc3)cc2)c(C(=N)NC2CCCC2)c1=O [Cpd 24]
6,7.00 to 9.00,N=C(NCC1CCCO1)c1c(O)nsc1Nc1ccc(Oc2ccccc2)cc1 (stereo not shown) [Cpd 25]
7,< 6.30,N=C(NCCN1CCOCC1)c1c(Nc2ccc(Oc3ccccc3)cc2)s[nH]c1=O [Cpd 26]
8,6.30 to 7.00,CCCCNC(=N)c1c(O)nsc1Nc1ccc(Oc2ccccc2)cc1 [Cpd 27]
9,7.00 to 9.00,CC(C)NC(=N)c1c(O)nsc1Nc1ccc(Oc2ccccc2)cc1 [Cpd 28]
10,6.30 to 7.00,CC(NC(=N)c1c(O)nsc1Nc1ccc(Oc2ccccc2)cc1)c1ccc(F)cc1 (stereo not shown) [compound 29]
11,6.30 to 7.00,CCOC(=O)N1CCC(NC(=N)c2c(O)nsc2Nc2ccc(Oc3ccccc3)cc2)CC1 [compound 30]
12,7.00 to 9.00,N=C(NCCCO)c1c(O)nsc1Nc1ccc(Oc2ccccc2)cc1 [compound 31]
13,7.00 to 9.00,N=C(NCCCCCCO)c1c(O)nsc1Nc1ccc(Oc2ccccc2)cc1 [compound 32]
14,7.00 to 9.00,N=C(NCCO)c1c(O)nsc1Nc1ccc(Oc2ccccc2)cc1 [compound 33]
15,6.30 to 7.00,C[C@H](NC(=N)c1c(O)nsc1Nc1ccc(Oc2ccccc2)cc1)c1ccccc1 [compound 34]
16,6.30 to 7.00,CC(C)CC(C)NC(=N)c1c(O)nsc1Nc1ccc(Oc2ccccc2)cc1 (stereo not shown) [compound 35]
17,6.30 to 7.00,N=C(NCCOc1ccccc1)c1c(O)nsc1Nc1ccc(Oc2ccccc2)cc1 [compound 36]
18,7.00 to 9.00,N=C(NCC1CCCCC1)c1c(O)nsc1Nc1ccc(Oc2ccccc2)cc1 [compound 37]
19,6.30 to 7.00,N=C(NCc1ccccn1)c1c(O)nsc1Nc1ccc(Oc2ccccc2)cc1 [compound 38]

row,pIC50,SMILES
1,7.00 to 9.00,N=C(NCCCN1CCCC1=O)c1c(O)nsc1Nc1ccc(Oc2ccccc2)cc1 [compound 39]
2,7.00 to 9.00,N=C(NCC(O)CO)c1c(O)nsc1Nc1ccc(Oc2ccccc2)cc1 (stereo not shown) [compound 40]
3,6.30 to 7.00,CC(C)(C)CCNC(=N)c1c(O)nsc1Nc1ccc(Oc2ccccc2)cc1 [compound 41]
4,7.00 to 9.00,CC(C)(C)CCNC(=N)c1c(O)nsc1Nc1ccc(Oc2ccccc2)cc1 [compound 42]
5,7.00 to 9.00,CC(C)CCNC(=N)c1nsc(Nc2ccc(Oc3ccccc3)cc2)c1O [compound 43]
6,< 6.30,N=C(NC1CC1)c1c(O)nsc1Nc1ccc(Oc2ccccc2)cc1 [compound 44]
7,7.00 to 9.00,N=C(NCc1cccc2ccccc12)c1c(O)nsc1Nc1ccc(Oc2ccccc2)cc1 [compound 45]
8,7.00 to 9.00,CC1(C)C2CCC1[C@H](CNC(=N)c1c(O)nsc1Nc1ccc(Oc3ccccc3)cc1)CC2 (stereo partly shown) [compound 46]
9,7.00 to 9.00,CC1(C)OCC(CNC(=N)c2c(O)nsc2Nc2ccc(Oc3ccccc3)cc2)O1 (stereo not shown) [compound 47]
10,7.00 to 9.00,N=C(NCC(c1ccccc1)c1ccccc1)c1c(O)nsc1Nc1ccc(Oc2ccccc2)cc1 [compound 48]
11,7.00 to 9.00,CCOCCCNC(=N)c1c(O)nsc1Nc1ccc(Oc2ccccc2)cc1 [compound 49]
12,7.00 to 9.00,CC(CCc1ccccc1)NC(=N)c1c(O)nsc1Nc1ccc(Oc2ccccc2)cc1 (stereo not shown) [compound 50]
13,7.00 to 9.00,CC(C)OCCCNC(=N)c1c(O)nsc1Nc1ccc(Oc2ccccc2)cc1 [compound 51]
14,7.00 to 9.00,CCC(C)CNC(=N)c1c(O)nsc1Nc1ccc(Oc2ccccc2)cc1 (stereo not shown) [compound 52]
15,6.30 to 7.00,N=C(NCCN1CCCCC1)c1c(O)nsc1Nc1ccc(Oc2ccccc2)cc1 [compound 53]
16,6.30 to 7.00,N=C(NCCN1CCOCC1)c1c(Nc2ccc(Oc3ccccc3)cc2)s[nH]c1=O [compound 54]
17,6.30 to 7.00,N=C(NCC(O)CO)c1c(O)nsc1Nc1ccc(Br)cc1 (stereo not shown) [compound 55]
18,< 6.30,Cc1ccc(Nc2sncc2C(=N)NC2CCCC2)cc1 [compound 56]
19,< 6.30,N=C(NCC1CCCCC1)c1c(O)nsc1Nc1ccc(CO)cc1 [compound 57]

# Same assay, conditions: Table 2, Ar1-A contains an amido or indolo group; read-out: IC 50
row,pIC50,SMILES
1,< 6.00,N/C(=N\CC1CCCCC1)c1c(O)nsc1Nc1ccccc1C(=O)NCC1CCCCC1 [E-1]
2,< 6.00,N=C(NCC1CCCCC1)c1c(O)nsc1Nc1ccc(S(=O)(=O)Nc2ccccc2)cc1 [E-2]
3,< 6.00,N=C(NCC1CCCCC1)c1c(O)nsc1Nc1ccc(C(=O)Nc2ccccc2)cc1 [E-4]
4,< 6.00,CC(CO)NC(=N)c1c(O)nsc1Nc1ccc(C(=O)Nc2ccccc2)cc1 (stereo not shown) [E-5]
5,< 6.00,N=C(NCCCCO)c1c(O)nsc1Nc1ccc(C(=O)Nc2ccccc2)cc1 [E-6]
6,< 6.00,CC(C)NC(=N)c1c(O)nsc1Nc1ccc(C(=O)Nc2ccccc2)cc1 [E-7]
7,6.00 to 6.70,N=C(NCCO)c1c(O)nsc1Nc1ccc(C(=O)Nc2ccccc2)cc1 [E-8]
8,6.00 to 6.70,CC(C)NC(=N)c1c(O)nsc1Nc1ccc(C(=O)NC(C)C)cc1 [E-9]
9,6.70 to 9.00,CC(C)NC(=N)c1c(O)nsc1Nc1ccc(C(=O)N2CCc3ccccc32)cc1 [E-10]
10,6.70 to 9.00,N=C(NCCCO)c1c(O)nsc1Nc1ccc(C(=O)N2CCc3ccccc32)cc1 [E-11]
11,6.00 to 6.70,N=C(NCC(O)CO)c1c(O)nsc1Nc1ccc(C(=O)N2CCc3ccccc32)cc1 (stereo not shown) [E-12]
12,< 6.00,N=C(NCCO)c1c(O)nsc1Nc1ccc(C(=O)N2CCc3ccccc32)cc1 [E-13]
13,< 6.00,N=C(NCCCCO)c1c(O)nsc1Nc1ccc(C(=O)N2CCc3ccccc32)cc1 [E-14]
14,< 6.00,N=C(NCCCCO)c1c(O)nsc1Nc1ccc(C(=O)NCCCCO)cc1 [E-15]
15,6.70 to 9.00,CC(CO)NC(=N)c1c(O)nsc1Nc1ccc(C(=O)N2CCc3ccccc32)cc1 (stereo not shown) [E-16]
16,< 6.00,CC(CO)NC(=N)c1c(O)nsc1Nc1ccc(C(=O)N2CCN(C)CC2)cc1 (stereo not shown) [E-17]
17,< 6.00,CN1CCN(C(=O)c2ccc(Nc3snc(O)c3C(=N)NCCO)cc2)CC1 [E-18]
18,< 6.00,CC(C)NC(=N)c1c(O)nsc1Nc1ccc(C(=O)N2CCN(C)CC2)cc1 [E-19]
19,6.70 to 9.00,N=C(N)c1c(O)nsc1Nc1ccc(C(=O)N2CCc3cc(Br)ccc32)cc1 [E-20]
20,6.00 to 6.70,CNC(=N)c1c(O)nsc1Nc1ccc(C(=O)N2CCc3cc(Cl)ccc32)cc1 [E-21]
21,< 6.00,CNC(=N)c1c(O)nsc1Nc1ccc(C(=O)N2CCc3cc(F)ccc32)cc1 [E-22]

# Same assay, conditions: Table 4, R' is (CH2)1 or 2-G; read-out: IC50
row,pIC50,SMILES
1,6.30 to 7.00,N=C(NCc1ccccc1)c1c(O)nsc1Nc1ccc(C(=O)c2ccccc2)cc1
